# Source: EP2522350A1, “Use of the active ingredient combination of a 1-diethylaminoethyl-3-chinoxalin-2-on derivative and an oxysterol for breaking resistance in the treatment of cancer and strengthening the immune system against cancer, bacterial and viral diseases, autoimmune diseases, increased stress and …” (Immunopharm AG, priority 2011, dated 2012)
# Test: ORAC value (Oxygen Radical Absorbing Capacity)
# Settings: ratio to other antioxidants; no test described
structure (smiles),measurement,value
"CCN(CC)CCn1c(=O)c(Cc2ccc(OC)cc2)nc2ccccc21 [Caroverin, 1-(2-Diethylaminoethyl)-3-(p-methoxy-benzyl)-1,2-dihydrochinoxalin-2-on]","ORAC-Wert, höher gegenüber allen anderen bekannten Antioxidantien wie Vitamin C, E oder Glutathion",≤ 1000 fach
